From patent US7163946B2 (Ligand Pharmaceuticals Incorporated, priority 2002, dated 2007)
pEC50, pIC50: −log10 of the molar value.

Experiments:
Type in all cases: cell-based
[1] = molecular target: T1, hPR (Homo sapiens, UniProt P06401); assay: T47D alkaline phosphatase assay, agonist mode; conditions: T47D human breast cancer cells; for Emax: T47D, read-out: hPR Agonist T47D cells Eff. (%)
T1 sequence (P06401 679-933 limits assumed): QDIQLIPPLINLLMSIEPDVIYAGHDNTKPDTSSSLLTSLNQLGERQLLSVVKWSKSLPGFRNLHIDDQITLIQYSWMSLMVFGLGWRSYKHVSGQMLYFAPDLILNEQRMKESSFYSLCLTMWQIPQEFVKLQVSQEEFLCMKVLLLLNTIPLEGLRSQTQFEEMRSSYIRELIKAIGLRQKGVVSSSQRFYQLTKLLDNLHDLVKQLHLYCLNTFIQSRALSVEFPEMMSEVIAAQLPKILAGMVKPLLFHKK
Description: The potential tissue-selectivities of the selected analogues were examined by using the T47D alkaline phosphatase assay that was developed from human breast cancer cells with endogenous PRs.

[2] = molecular target: T2, human estrogen receptor (hER) (Homo sapiens, UniProt P03372); assay: hER cotransfection assay (potency ratio to hPR); conditions: receptor-selectivity potency ratio, cotransfection assays
T2 sequence (P03372 1-595): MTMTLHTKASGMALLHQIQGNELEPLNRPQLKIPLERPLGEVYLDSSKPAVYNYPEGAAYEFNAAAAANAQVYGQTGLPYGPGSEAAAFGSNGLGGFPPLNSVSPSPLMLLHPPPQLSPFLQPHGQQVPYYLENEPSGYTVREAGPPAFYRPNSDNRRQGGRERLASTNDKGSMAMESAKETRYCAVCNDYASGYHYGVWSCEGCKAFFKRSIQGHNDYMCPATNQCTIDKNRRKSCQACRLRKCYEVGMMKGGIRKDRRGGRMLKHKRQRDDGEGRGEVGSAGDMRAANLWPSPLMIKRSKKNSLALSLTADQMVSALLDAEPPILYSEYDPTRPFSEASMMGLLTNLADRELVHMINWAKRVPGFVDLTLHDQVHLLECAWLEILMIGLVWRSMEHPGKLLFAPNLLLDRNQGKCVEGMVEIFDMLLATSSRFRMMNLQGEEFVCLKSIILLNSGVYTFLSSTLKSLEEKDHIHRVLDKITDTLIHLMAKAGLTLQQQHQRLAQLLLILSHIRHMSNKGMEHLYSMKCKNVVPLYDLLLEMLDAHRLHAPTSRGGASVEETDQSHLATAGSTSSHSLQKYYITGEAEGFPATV
Protocol: (§1) Antagonist efficacy was determined as a function (%) of maximal inhibition of a reference agonist at EC50 concentration. All the cotransfection experiments were carried out in 96-well plates by automation (Beckman Biomomek automated workstation).

[3] = molecular target: T3, hPR (Homo sapiens, UniProt P06401); assay: hPR cotransfection assay in CV-1 cells, antagonist mode; conditions: for Emax: CV-1, CV-1 cells, maximal inhibition of reference agonist at EC50 concentration, read-out: hPR Antagonist CV-1 Cells Eff. (%); for pIC50: CV-1 cells
T3 sequence (P06401 1-933): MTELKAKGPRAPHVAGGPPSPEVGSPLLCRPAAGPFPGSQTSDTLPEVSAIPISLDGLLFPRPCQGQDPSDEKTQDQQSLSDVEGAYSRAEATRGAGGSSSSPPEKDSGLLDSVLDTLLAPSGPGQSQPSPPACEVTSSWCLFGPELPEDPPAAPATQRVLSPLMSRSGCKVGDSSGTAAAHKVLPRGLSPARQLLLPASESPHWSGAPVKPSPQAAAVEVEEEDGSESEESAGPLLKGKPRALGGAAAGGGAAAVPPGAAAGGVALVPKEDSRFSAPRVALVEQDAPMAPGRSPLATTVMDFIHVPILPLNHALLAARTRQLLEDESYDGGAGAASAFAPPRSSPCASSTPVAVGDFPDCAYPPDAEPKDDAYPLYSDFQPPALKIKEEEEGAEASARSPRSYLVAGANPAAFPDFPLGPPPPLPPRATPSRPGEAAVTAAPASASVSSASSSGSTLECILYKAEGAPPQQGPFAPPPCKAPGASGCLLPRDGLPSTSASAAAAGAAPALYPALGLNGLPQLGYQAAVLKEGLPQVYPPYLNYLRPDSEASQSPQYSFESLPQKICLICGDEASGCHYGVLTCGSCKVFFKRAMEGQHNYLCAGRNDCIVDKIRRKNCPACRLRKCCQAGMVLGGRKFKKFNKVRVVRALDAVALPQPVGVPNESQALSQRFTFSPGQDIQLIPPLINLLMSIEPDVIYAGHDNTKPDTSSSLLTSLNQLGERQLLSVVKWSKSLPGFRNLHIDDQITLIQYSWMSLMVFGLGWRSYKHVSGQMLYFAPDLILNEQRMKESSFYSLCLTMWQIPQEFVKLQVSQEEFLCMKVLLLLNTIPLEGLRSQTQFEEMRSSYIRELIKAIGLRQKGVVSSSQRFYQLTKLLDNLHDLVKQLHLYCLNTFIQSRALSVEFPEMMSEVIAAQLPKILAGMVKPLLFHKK
Protocol: as §1

[4] = molecular target: T4, hGR (Homo sapiens, UniProt P04150); assay: hGR cotransfection assay (potency ratio to hPR); conditions: receptor-selectivity potency ratio, cotransfection assays
T4 sequence (P04150 1-777): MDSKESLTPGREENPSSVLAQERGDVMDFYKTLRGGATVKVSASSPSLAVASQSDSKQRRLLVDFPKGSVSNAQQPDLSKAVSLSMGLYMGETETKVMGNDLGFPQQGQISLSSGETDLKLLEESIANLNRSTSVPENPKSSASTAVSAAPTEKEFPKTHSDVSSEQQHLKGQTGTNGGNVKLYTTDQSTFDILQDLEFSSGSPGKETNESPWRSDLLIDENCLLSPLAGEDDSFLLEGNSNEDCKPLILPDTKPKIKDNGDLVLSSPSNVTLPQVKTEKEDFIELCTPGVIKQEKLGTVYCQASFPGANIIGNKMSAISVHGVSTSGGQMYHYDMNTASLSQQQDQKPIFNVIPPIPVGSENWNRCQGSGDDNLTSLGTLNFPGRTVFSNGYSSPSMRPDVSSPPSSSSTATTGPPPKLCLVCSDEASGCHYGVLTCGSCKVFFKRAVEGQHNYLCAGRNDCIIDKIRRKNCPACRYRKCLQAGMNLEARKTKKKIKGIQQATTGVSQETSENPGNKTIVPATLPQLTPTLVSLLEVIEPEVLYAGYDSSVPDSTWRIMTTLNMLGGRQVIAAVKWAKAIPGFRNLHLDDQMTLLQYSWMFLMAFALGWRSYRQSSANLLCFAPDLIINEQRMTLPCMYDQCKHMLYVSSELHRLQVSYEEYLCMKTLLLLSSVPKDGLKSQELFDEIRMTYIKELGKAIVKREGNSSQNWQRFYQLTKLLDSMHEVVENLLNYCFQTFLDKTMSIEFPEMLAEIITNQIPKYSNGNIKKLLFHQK
Protocol: as §1

`CC1=CC(C)(C)Nc2ccc3c(c21)C(c1cc2ccccc2s1)Oc1c(F)cc(F)cc1-3` (racemic) [Compound 63, (±)-7,9-difluoro-5-(benzo[b]thien-2-yl)-1,2-dihydro-2,2,4-trimethyl-5H-chromeno[3,4-f]quinoline] was tested, and the pEC50 [1] was 7.70, the Emax [1] was 61% and the “hER EC50 or IC50/hPR EC50” value [2] was 685. For the same compound, the Emax [3] was less than 20%, the pIC50 [3] was less than 5.00 and the “hGR EC50 or IC50/hPR EC50” value [4] was 8.8.
With `CC1=CC(C)(C)Nc2ccc3c(c21)C(c1ccccc1)Oc1c(F)cc(F)cc1-3` (racemic) [Compound 33, (±)-7,9-difluoro-5-phenyl-1,2-dihydro-2,2,4-trimethyl-5H-chromeno[3,4-f]quinoline] the pEC50 [1] was 7.46, the Emax [1] was 62% and the “hER EC50 or IC50/hPR EC50” value [2] was greater than 1000. The Emax [3] was less than 20%, the pIC50 [3] was less than 5.00 and the “hGR EC50 or IC50/hPR EC50” value [4] was 10.
For `CC#CC1Oc2c(F)cc(F)cc2-c2ccc3c(c21)C(C)=CC(C)(C)N3` (racemic) [Compound 74, (±)-7,9-difluoro-5-(1-propynyl)-1,2-dihydro-2,2,4-trimethyl-5H-chromeno[3,4-f]quinoline], the pEC50 [1] was 8.34, the Emax [1] was 58% and the “hER EC50 or IC50/hPR EC50” value [2] was greater than 1000. The Emax [3] was less than 20%, the pIC50 [3] was less than 5.00 and the “hGR EC50 or IC50/hPR EC50” value [4] was greater than 1000.
For `COc1ccc(F)cc1/C=C1\Oc2c(F)cc(F)cc2-c2ccc3c(c21)C(C)=CC(C)(C)N3` [Compound 26, 7,9-difluoro-5(Z)-(2-methoxy-5-fluorobenzylidene)-1,2-dihydro-2,2,4-trimethyl-5H-chromeno[3,4-f]quinoline], the pEC50 [1] was 8.12, the Emax [1] was 63% and the “hER EC50 or IC50/hPR EC50” value [2] was greater than 1000. For the same compound, the Emax [3] was less than 20%, the pIC50 [3] was less than 5.00 and the “hGR EC50 or IC50/hPR EC50” value [4] was 342.
In the case of `CC1=CC(C)(C)Nc2ccc3c(c21)/C(=C/Br)Oc1c(F)cc(F)cc1-3` [Compound 29, 7,9-difluoro-5(Z)-bromomethylidene-1,2-dihydro-2,2,4-trimethyl-5H-chromeno[3,4-f]quinoline], the pEC50 [1] was 8.06, the Emax [1] was 62% and the “hER EC50 or IC50/hPR EC50” value [2] was greater than 1000. The Emax [3] was less than 20%, the pIC50 [3] was less than 5.00 and the “hGR EC50 or IC50/hPR EC50” value [4] was 83.
With `CC1=CC(C)(C)Nc2ccc3c(c21)C(c1cccc(Cl)c1)Oc1c(F)cc(F)cc1-3` (racemic) [Compound 41, (±)-7,9-difluoro-5-(3-chlorophenyl)-1,2-dihydro-2,2,4-trimethyl-5H-chromeno[3,4-f]quinoline] the pEC50 [1] was 7.38, the Emax [1] was 54% and the “hER EC50 or IC50/hPR EC50” value [2] was greater than 1000. For the same compound, the Emax [3] was less than 20%, the pIC50 [3] was less than 5.00 and the “hGR EC50 or IC50/hPR EC50” value [4] was 105.
`CC1=CC(C)(C)Nc2ccc3c(c21)/C(=C/c1ccncc1)Oc1c(F)cc(F)cc1-3` [Compound 14, 7,9-difluoro-5(Z)-(4-picolylidene)-1,2-dihydro-2,2,4-trimethyl-5H-chromeno[3,4-f]quinoline] was tested, and the pEC50 [1] was 7.31, the Emax [1] was 58% and the “hER EC50 or IC50/hPR EC50” value [2] was greater than 1000. The Emax [3] was less than 20%, the pIC50 [3] was less than 5.00 and the “hGR EC50 or IC50/hPR EC50” value [4] was 365.
`CC1=CC(C)(C)Nc2ccc3c(c21)/C(=C/c1ccncc1C)Oc1c(F)cc(F)cc1-3` [Compound 20, 7,9-difluoro-5(Z)-(3-methyl-4-picolylidene)-1,2-dihydro-2,2,4-trimethyl-5H-chromeno[3,4-f]quinoline] was tested, and the pEC50 [1] was 8.18, the Emax [1] was 63% and the “hER EC50 or IC50/hPR EC50” value [2] was greater than 1000. The Emax [3] was less than 20%, the pIC50 [3] was less than 5.00 and the “hGR EC50 or IC50/hPR EC50” value [4] was 27.
`CC1=CC(C)(C)Nc2ccc3c(c21)/C(=C/c1cc(F)ccc1F)Oc1c(F)cc(F)cc1-3` [Compound 17, 7,9-difluoro-5(Z)-(2,5-difluorobenzylidene)-1,2-dihydro-2,2,4-trimethyl-5H-chromeno[3,4-f]quinoline] was tested, and the pEC50 [1] was 7.92, the Emax [1] was 62% and the “hER EC50 or IC50/hPR EC50” value [2] was greater than 1000. The Emax [3] was less than 20%, the pIC50 [3] was less than 5.00 and the “hGR EC50 or IC50/hPR EC50” value [4] was 66.
With `CC1=CC(C)(C)Nc2ccc3c(c21)/C(=C/c1ccccc1)Oc1c(F)cc(F)cc1-3` [Compound 10, 7,9-difluoro-5(Z)-benzylidene-1,2-dihydro-2,2,4-trimethyl-5H-chromeno[3,4-f]quinoline] the pEC50 [1] was 7.52, the Emax [1] was 54% and the “hER EC50 or IC50/hPR EC50” value [2] was greater than 1000. For the same compound, the Emax [3] was less than 20%, the pIC50 [3] was less than 5.00 and the “hGR EC50 or IC50/hPR EC50” value [4] was 290.
In the case of `CC1=CC(C)(C)Nc2ccc3c(c21)/C(=C/c1ccsc1)Oc1c(F)cc(F)cc1-3` [Compound 30, 7,9-difluoro-5(Z)-(3-thienylmethylidene)-1,2-dihydro-2,2,4-trimethyl-5H-chromeno[3,4-f]quinoline], the pEC50 [1] was 7.48, the Emax [1] was 66% and the “hER EC50 or IC50/hPR EC50” value [2] was greater than 1000. The Emax [3] was less than 20%, the pIC50 [3] was less than 5.00 and the “hGR EC50 or IC50/hPR EC50” value [4] was 19.
`CC1=CC(C)(C)Nc2ccc3c(c21)/C(=C/c1cc(F)ccc1C)Oc1c(F)cc(F)cc1-3` [Compound 19, 7,9-difluoro-5(Z)-(2-methyl-5-fluorobenzylidene)-1,2-dihydro-2,2,4-trimethyl-5H-chromeno[3,4-f]quinoline] was tested, and the pEC50 [1] was 8.06, the Emax [1] was 65% and the “hER EC50 or IC50/hPR EC50” value [2] was greater than 1000. The Emax [3] was less than 20%, the pIC50 [3] was less than 5.00 and the “hGR EC50 or IC50/hPR EC50” value [4] was 432.
For `COc1ccccc1/C=C1\Oc2c(F)cc(F)cc2-c2ccc3c(c21)C(C)=CC(C)(C)N3` [Compound 18, 7,9-difluoro-5(Z)-(2-methoxybenzylidene)-1,2-dihydro-2,2,4-trimethyl-5H-chromeno[3,4-f]quinoline], the pEC50 [1] was 7.77, the Emax [1] was 57% and the “hER EC50 or IC50/hPR EC50” value [2] was greater than 1000. The Emax [3] was less than 20%, the pIC50 [3] was less than 5.00 and the “hGR EC50 or IC50/hPR EC50” value [4] was 77.
In the case of `CC1=CC(C)(C)Nc2ccc3c(c21)C(c1cccc(C)c1)Oc1c(F)cc(F)cc1-3` (racemic) [Compound 34, (±)-7,9-difluoro-5-(3-methylphenyl)-1,2-dihydro-2,2,4-trimethyl-5H-chromeno[3,4-f]quinoline], the pEC50 [1] was 7.47, the Emax [1] was 60% and the “hER EC50 or IC50/hPR EC50” value [2] was greater than 1000. For the same compound, the Emax [3] was less than 20%, the pIC50 [3] was less than 5.00 and the “hGR EC50 or IC50/hPR EC50” value [4] was greater than 1000.
